One series has as its system CHO. In words: Cytotoxicity against CHO cells after 48 hrs by MTT assay. The format is cell-based. Conditions: Cricetulus griseus.
Series [1] can be described thus: Selectivity index, ratio of IC50 for CHO cells to IC50 for chloroquine-susceptible Plasmodium falciparum D10. The format is toxicity, cell-based. Particulars: hamster, read-out: Ratio IC50.
Series [2] concerns Plasmodium falciparum. In words: Antimalarial activity against chloroquine-resistant Plasmodium falciparum Dd2 asexual erythrocyte forms after 48 hrs by parasite LDH assay. Particulars: Dd2, 48 h. In kind it is functional, organism-based.
Series [3] can be described thus: Solubility in octanol at pH 7.4. The format is physicochemical.
Series [4] in a line: Aqueous solubility in pH 7.4 PBS buffer at 37 degC incubated for 24 hrs by HPLC method. The format is physicochemical. Particulars: pH 7.4, 24 h.
Series [5] can be described thus: Partition coefficient, log D of the compound using n-octanol/PBS buffer system at pH 7.4 by HPLC method. The format is physicochemical.
Series [6] in a line: Partition coefficient, log D of the compound using n-octanol/PBS buffer system at pH 5.5 by HPLC method. In kind it is physicochemical.
Series [7] can be described thus: Solubility in octanol at pH 5.5. In kind it is physicochemical. Particulars: buffer.
Series [8] can be described thus: Aqueous solubility in pH 5.5 PBS buffer at 37 degC incubated for 24 hrs by HPLC method. Conditions: pH 5.5, 24 h. The format is physicochemical.
The test system of series [9] is Plasmodium falciparum. The series is described as follows: Resistance index, ratio of IC50 for chloroquine-resistant Plasmodium falciparum Dd2 to IC50 for chloroquine-susceptible Plasmodium falciparum D10. The format is functional.
For series [10], the system named is Plasmodium falciparum. The series is described as follows: microbe, parasite or virus in culture. Particulars: D10, 48 h.
Series [11] in a line: Dissociation constant, pKa of the compound at pH 7.4.
Setting [12] is: n-octanol/PBS buffer, read-out: logD.

Values after ≈ are worked out from the molar mass of the structure shown.

The term IC50 denotes the concentration needed to halve the response being measured. Usually solubility stands for the dissolved amount per volume that the medium holds. A higher solubility goes with a readily soluble substance. One may read the logD as lipophilicity at a set pH, counting ionised and neutral species. Regarding `Nc1cc(OCCCNc2ccnc3cc(Cl)ccc23)nc(N)n1`, the IC50 was 107000 nM in the series on CHO, 467 nM in the series with Plasmodium falciparum [2] and 217 nM with Plasmodium falciparum [10]. The selectivity ratio in [1] came to 494. The solubility in series [3] was found to be 1.2 µM (≈ 0.414 µg/mL); in [4], 0.12 µM (≈ 0.0414 µg/mL); in series [7] it was 0.25 µM (≈ 0.0862 µg/mL); in series [8] it was 0.31 µM (≈ 0.107 µg/mL). Besides, the logD is 1.01 in [5] (setting [12]) and -0.08 in series [6] (setting [12]). For the same compound, in the series on Plasmodium falciparum [9], the “Ratio IC50” value was 2.2.
`Nc1cc(N2CCN(c3ccnc4cc(Cl)ccc34)CC2)nc(N)n1`: the IC50 in the series on CHO stood at 146000 nM; with Plasmodium falciparum [2], 157 nM; with Plasmodium falciparum [10], 70 nM. Further, in series [1], the selectivity ratio amounted to 2070. For the same compound, the solubility was 0.01 µM (≈ 0.00356 µg/mL) in series [4], 0.07 µM (≈ 0.0249 µg/mL) in series [7] and 0.66 µM (≈ 0.235 µg/mL) in [8]. Also, the pH-dependent lipophilicity (logD) entry in series [5] (octanol/water) is “ND(Insoluble)”; in [6] (setting [12]), -0.99. Further, in the series with Plasmodium falciparum [9], the “Ratio IC50” value stood at 2.4.
Turning to `Nc1cc(OCCNc2ccnc3cc(Cl)ccc23)nc(N)n1`, the results for the concentration for half-maximal inhibition (IC50) in the series with CHO, with Plasmodium falciparum [2] and in the series on Plasmodium falciparum [10] were 174000 nM, 580 nM and 230 nM, respectively. For the same compound, the selectivity ratio in [1] worked out at 764. Besides, the solubility is 1.84 µM (≈ 0.609 µg/mL) in series [3], 0.23 µM (≈ 0.0761 µg/mL) in [4], 0.15 µM (≈ 0.0496 µg/mL) in [7] and 0.3 µM (≈ 0.0992 µg/mL) in series [8]. Besides, the logD was 0.9 in series [5] (setting [12]) and -0.3 in series [6] (setting [12]). The “Ratio IC50” value in the series with Plasmodium falciparum [9] is on record as 2.6.
Consider `Nc1cc(Nc2ccc(Nc3ccnc4cc(Cl)ccc34)cc2)nc(N)n1`, for which the IC50 came out at 13800 nM with CHO, 107 nM with Plasmodium falciparum [2] and 220 nM in the series on Plasmodium falciparum [10]. Further, the selectivity ratio in series [1] was found to be 63. The solubility result in series [4] is “ND(Insoluble)”; in [8] it was 0.01 µM (≈ 0.00378 µg/mL). Also, the logD result in [5] (octanol/water) and in series [6] (octanol/water) was “ND(Insoluble)” throughout. Moreover, the “Ratio IC50” value in the series with Plasmodium falciparum [9] is reported as 0.5.
`Nc1cc(NCCCCNc2ccnc3cc(Cl)ccc23)nc(N)n1`: the IC50 in the series on CHO amounted to 162000 nM; in the series on Plasmodium falciparum [2], 1260 nM; with Plasmodium falciparum [10] it was 580 nM. For the same compound, the selectivity ratio in series [1] was found to be 280. The solubility was found to be 2.91 µM (≈ 1.04 µg/mL) in series [3], 0.94 µM (≈ 0.336 µg/mL) in series [4], 0.19 µM (≈ 0.068 µg/mL) in [7] and 1.04 µM (≈ 0.372 µg/mL) in [8]. Further, the logD was 0.49 in series [5] (setting [12]) and -0.74 in [6] (setting [12]). The “Ratio IC50” value in the series on Plasmodium falciparum [9] was 2.2.
Take `CC[C@H]1CN2CCc3cc(OC)c(OC)cc3[C@@H]2C[C@@H]1C[C@H]1NCCc2cc(OC)c(OC)cc21` [EMETINE]: inhibition in the series with CHO was half-maximal at 125000 nM (IC50).
With `Nc1cc(NCCNc2ccnc3cc(Cl)ccc23)nc(N)n1`, the results for the IC50 in the series with CHO, in the series on Plasmodium falciparum [2] and with Plasmodium falciparum [10] were 190000 nM, 1020 nM and 317 nM, respectively. The selectivity ratio in series [1] is 607. Besides, the solubility in series [3] turned out to be 0.72 µM (≈ 0.237 µg/mL); in series [4] it was 0.12 µM (≈ 0.0396 µg/mL); in series [7], 0.45 µM (≈ 0.148 µg/mL); in series [8], 0.52 µM (≈ 0.171 µg/mL). For the same compound, the figures for the logD in series [5] (setting [12]) and in [6] (setting [12]) were 0.78 and -0.07, respectively. The “Ratio IC50” value in the series with Plasmodium falciparum [9] is recorded as 3.2.
For the compound `CCC(COc1cc(N)nc(N)n1)Nc1ccnc2cc(Cl)ccc12` (stereo unspecified), the IC50 worked out at 156000 nM in the series with CHO, 210 nM in the series with Plasmodium falciparum [2] and 157 nM in the series with Plasmodium falciparum [10]. In [1], the selectivity ratio was determined as 995. Further, the solubility in series [3] is 5.68 µM (≈ 2.04 µg/mL); in series [4], 0.02 µM (≈ 0.00718 µg/mL); in series [7], 0.49 µM (≈ 0.176 µg/mL); in series [8] it was 0.04 µM (≈ 0.0144 µg/mL). Further, the logD was found to be 2.47 in series [5] (setting [12]) and 1.07 in [6] (setting [12]). Moreover, the “Ratio IC50” value in the series with Plasmodium falciparum [9] is given as 1.4.
For the compound `Nc1cc(NCCCNc2ccnc3cc(Cl)ccc23)nc(N)n1`, the figures for the half-maximal inhibitory concentration (IC50) with CHO, in the series on Plasmodium falciparum [2] and with Plasmodium falciparum [10] were 255000 nM, 1210 nM and 850 nM, respectively. The selectivity ratio in series [1] was 308. Further, the solubility in series [3] is 0.79 µM (≈ 0.272 µg/mL); in [4], 0.62 µM (≈ 0.213 µg/mL); in [7], 0.16 µM (≈ 0.055 µg/mL); in series [8], 0.88 µM (≈ 0.303 µg/mL). Also, the logD in [5] (setting [12]) was 0.11; in series [6] (setting [12]) it was -0.74. Also, in the series on Plasmodium falciparum [9], the “Ratio IC50” value was 1.4.
The pKa is the negative logarithm of the acid dissociation constant. The low end stands for a stronger acid or weaker base, the high end for a weaker acid or stronger base. `CCc1nc(N)nc(N)c1-c1ccc(Cl)cc1` [PYRIMETHAMINE] returned a pKa in series [11] of 7.36. The solubility in series [3] is 12.8 µM (≈ 3.19 µg/mL); in [4], 0.15 µM (≈ 0.0373 µg/mL); in [7], 6.67 µM (≈ 1.66 µg/mL); in series [8], 1.16 µM (≈ 0.289 µg/mL). Besides, the values for the logD in [5] (setting [12]) and in [6] (setting [12]) were 1.93 and 0.76, respectively. In the series on Plasmodium falciparum [10], this compound came in with a half-maximal inhibitory concentration (IC50) of 70 nM.
In the case of `CC(COc1cc(N)nc(N)n1)Nc1ccnc2cc(Cl)ccc12` (stereo unspecified), the figures for the IC50 with CHO, in the series with Plasmodium falciparum [2] and in the series on Plasmodium falciparum [10] were 250000 nM, 543 nM and 243 nM, respectively. Also, in series [1], the selectivity ratio came out at 1030. Also, the solubility was determined as 2.14 µM (≈ 0.738 µg/mL) in series [3], 0.25 µM (≈ 0.0862 µg/mL) in [4], 0.07 µM (≈ 0.0241 µg/mL) in series [7] and 1.45 µM (≈ 0.5 µg/mL) in [8]. The logD in series [5] (setting [12]) is 0.92; in series [6] (setting [12]), -1.34. Further, the “Ratio IC50” value in the series with Plasmodium falciparum [9] worked out at 2.3.
`Nc1cc(OCCOCCNc2ccnc3cc(Cl)ccc23)nc(N)n1`: the figures for the half-inhibitory concentration (IC50) in the series on CHO, with Plasmodium falciparum [2] and in the series on Plasmodium falciparum [10] were 250000 nM, 4100 nM and 837 nM, respectively. In addition, the selectivity ratio in series [1] came to 303. Moreover, the solubility in series [3] was determined as 0.44 µM (≈ 0.165 µg/mL); in series [4], 0.84 µM (≈ 0.315 µg/mL); in [7] it was 0.6 µM (≈ 0.225 µg/mL); in series [8], 1.17 µM (≈ 0.439 µg/mL). Moreover, the results for the logD in [5] (setting [12]) and in series [6] (setting [12]) were -0.28 and -0.29, respectively. Moreover, in the series with Plasmodium falciparum [9], the “Ratio IC50” value was determined as 5.

For the origin of these results see ChEMBL document CHEMBL2311481, “Synthesis, characterization and antimalarial activity of quinoline-pyrimidine hybrids” (Bioorg Med Chem, 2013).
